Data reported in ChEMBL document CHEMBL4177741, “NOTA analogue: A first dithiocarbamate inhibitor of metallo-β-lactamases” (Bioorg Med Chem Lett, 2018).
Converted amounts (≈) assume the structure as drawn. Blank lines part the entries; values can stand above or below the compound they belong to. The source made the active and inactive calls. The rule behind the calls is not given here.

What was measured:
HeLa [1] = assay: Cytotoxicity in human HeLa cells assessed as inhibition of cell growth at 64 ug/ml incubated for 24 hrs by calcein AM and propidium iodide staining based fluorescence microscopy
Proteus mirabilis [2] = conditions: 64 ug/ml
Description: (§2) Inhibition of NDM1 in Proteus mirabilis clinical isolates assessed as potentiation of meropenem-induced antibacterial activity by measuring meropenem MIC at 64 ug/ml incubated for 16 to 18 hrs by broth microdilution method

Proteus mirabilis [3] = assay: (§1) Inhibition of NDM1 in Proteus mirabilis clinical isolates assessed as potentiation of meropenem-induced antibacterial activity by measuring meropenem MIC at 32 ug/ml incubated for 16 to 18 hrs by broth microdilution method
HeLa [4] = assay: Cytotoxicity in human HeLa cells assessed as inhibition of cell growth at 128 ug/ml incubated for 24 hrs by calcein AM and propidium iodide staining based fluorescence microscopy
Citrobacter freundii [5] = assay: Inhibition of NDM1 in Citrobacter freundii clinical isolates assessed as potentiation of meropenem-induced antibacterial activity by measuring meropenem MIC at 32 ug/ml incubated for 16 to 18 hrs by broth microdilution method
Escherichia coli [6] = assay: Potentiation of meropenem-induced antibacterial activity in Escherichia coli expressing NDM1 assessed as meropenem inhibition zone incubated for 16 to 18 hrs by CLSI protocol based disc diffusion method (reference value: 10.76 mm); type: functional
Proteus mirabilis [7] = conditions: 64 ug/ml; remark: listed apart in the source
Description: as §2

Escherichia coli [8] = assay: Effect on cell growth of Escherichia coli expressing NDM1 assessed as cell growth level; type: organism-based
Escherichia coli [9] = assay: Effect on cell growth of Escherichia coli expressing NDM1 incubated for 16 to 18 hrs by CLSI protocol based method; type: organism-based
Erythrocyte = assay: Hemolytic activity in sheep RBCs at 10000 ug/ml incubated for 1 hr; type: ADME, cell-based, Ovis aries
[10] = Cytotoxicity in human HeLa cells assessed as inhibition of cell growth at 1000 ug/ml incubated for 24 hrs by CCK8 assay; type: cell-based; conditions: read-out: GI
Citrobacter freundii [11] = conditions: 64 ug/ml
Description: Inhibition of NDM1 in Citrobacter freundii clinical isolates assessed as potentiation of meropenem-induced antibacterial activity by measuring meropenem MIC at 64 ug/ml incubated for 16 to 18 hrs by broth microdilution method

Proteus mirabilis [12] = assay: as §1; remark: listed apart in the source
[13] = biological target: Beta-lactamase NDM-1 (Escherichia coli) (UniProt E5KIY2)
[14] = biological target: Beta-lactamase NDM-1 (Escherichia coli) (UniProt E5KIY2); assay: Inhibition of NDM1 in Escherichia coli assessed as potentiation of 0.125 ug/ml meropenem-induced antibacterial activity by measuring bacterial count at 32 ug/ml incubated for 3 hrs by time-dependent killing assay (reference value: […])
[15] = biological target: Metallo-beta-lactamase type 2 (Klebsiella pneumoniae) (UniProt C7C422)
Beta-lactamase NDM-1 [16] = biological target: T1, Beta-lactamase NDM-1 (Escherichia coli, UniProt E5KIY2)
Description: Inhibition of NDM1 in Escherichia coli BL21 (DE3) using MEPM substrate incubated for 15 mins by UV spectroscopy

[17] = biological target: Beta-lactamase NDM-1 (Escherichia coli) (UniProt E5KIY2); remark: listed apart in the source
[18] = biological target: Beta-lactamase NDM-1 (Escherichia coli) (UniProt E5KIY2); remark: listed apart in the source
Beta-lactamase NDM-1 [19] = biological target: T1, Beta-lactamase NDM-1; remark: listed apart in the source
Description: Non-competitive inhibition of NDM1 in Escherichia coli BL21 (DE3) using MEPM substrate incubated for 15 mins by UV spectroscopy based L-B plot

Proteus mirabilis [20] = assay: as §1; remark: listed apart in the source
[21] = biological target: Metallo-beta-lactamase type 2 (Klebsiella pneumoniae) (UniProt C7C422); remark: listed apart in the source
[22] = biological target: Beta-lactamase NDM-1 (Escherichia coli) (UniProt E5KIY2); remark: listed apart in the source
HeLa [23] = assay: Cytotoxicity in human HeLa cells assessed as inhibition of cell growth at 0.1% incubated for 24 hrs by calcein AM and propidium iodide staining based fluorescence microscopy; type: functional

- MIC (Proteus mirabilis [2]): > 16 µg/mL
- MIC (Proteus mirabilis [3]): 4 µg/mL
- MIC (Citrobacter freundii [5]): 4 µg/mL
- MIC (Proteus mirabilis [7]): 4 µg/mL
- MIC (Citrobacter freundii [11]): 0.5 µg/mL
- MIC (Proteus mirabilis [12]): > 16 µg/mL
SMILES: S=C([S-])N1CCN(C(=S)[S-])CCN(C(=S)[S-])CC1.[Na+].[Na+].[Na+]
- Activity (HeLa [1]): Non-Toxic
- Activity (HeLa [4]): Non-Toxic
- inhibition zone (IZ) (Escherichia coli [6]): 15.9 mm
- Activity (Escherichia coli [8]): 90%
- MIC (Escherichia coli [9]): > 128 µg/mL
- Activity (Erythrocyte): Non-Toxic
- inhibition at 24 h, 1000 ug/ml [10]: 20%

- MIC [13]: < 0.03 µg/mL
- MIC [15]: 1 µg/mL (≈ 3.3 µM)
- MIC (Proteus mirabilis [3]): 0.5 µg/mL
- IC50 (Beta-lactamase NDM-1 [16]): 110 nM
- MIC [17]: 0.125 µg/mL (≈ 0.412 µM)
- MIC (Citrobacter freundii [5]): 0.06 µg/mL
- MIC [18]: 0.125 µg/mL (≈ 0.412 µM)
- Ki (Beta-lactamase NDM-1 [19]): 5110 nM
- MIC (Proteus mirabilis [20]): 0.5 µg/mL
- MIC [21]: 2 µg/mL (≈ 6.59 µM)
- MIC (Proteus mirabilis [12]): 2 µg/mL
SMILES: O=C(O)CN1CCN(CC(=O)O)CCN(CC(=O)O)CC1
- Activity [14]: 10000 to 1e+06 CFU/mL
- Activity (Escherichia coli [8]): 90%
- MIC (Escherichia coli [9]): > 128 µg/mL

- IZ [22]: 21.7 mm
SMILES: O=C(O)CN(CCN(CC(=O)O)CC(=O)O)CC(=O)O

SMILES: CC(C)(C)CC(C)(C)c1ccc(OCCOCCOCCOCCOCCOCCOCCO)cc1
- Activity (HeLa [23]): Active
